In US5200426A, “Inhibitors of neutral endopeptidase/CALLA as chemotherapeutic agents” (Board of Regents, The University of Texas, priority 1990, dated 1993):
Entries after “also recorded” stand apart in the source; their conditions may differ. Values belong to the compound of their own block, whether it stands above or below them. Square brackets hold non-standard residues; d marks the D form. Peptide text beside a SMILES is read from it. * marks the point of attachment. BrAc = O=C(CBr)*

Experiments:
[1] = test system: neutral endopeptidase 24.11 (NEP); experiment: Affinity labelling / irreversible inactivation of NEP; type: biochemical
Excerpt: (§1) The efficacy of endopeptidase inhibitors may be assessed by determining cell numbers and the percent of viable cells (e.g., assessed by trypan blue exclusion) as a function of time in culture in the presence and absence of the endopeptidase inhibitors. In addition the level of neutral endopeptidase activity will be measured and correlated with these parameters. Since the enzyme is on the cell surface its activity can be measured by simply adding substrate to the cell culture. The kinetics of inactivation of purified enzyme can also be assessed. A graphical analysis of the inactivation constant (kobs) versus the inhibitor concentration can be plotted. If the inhibitor binds to the active site of the enzyme this graph should be hyperbolic. The data can then be analyzed in a double reciprocal plot of 1/kobs versus 1/[Inhibitor]. This should yield a straight line from which the dissociation constant for the inhibitor (Ki) and the maximal rate of inactivation k(inact) can be obtained. […] This type of analysis has previously been conducted to characterize the reaction of both phenylglyoxal and N-bromoacetyl-D-Leu-Gly with the enzyme.

[2] = molecular target: neutral endopeptidase 24.11 (NEP); experiment: Competitive inhibition of neutral endopeptidase (NEP); type: biochemical; conditions: read-out: Ki (competitive inhibitor)
Excerpt: as §1
NEP: glutaryl-Ala-Ala-Phe-MNA →glutaryl-Ala-Ala + Phe-MNA Aminopeptidase: Phe-MNA →Phe + MNA MNA =4-methoxy-2-naphthylamine

[3] = test system: Nalm-6 cells (CALLA+ human leukemic cell line); experiment: Growth of Nalm-6 cells (viable cell counts daily); type: cell-based; conditions: for growth of Nalm-6 cells: bolus or daily addition, FIG. 4; for growth of Nalm-6 cells in conditioned media: 50-50 mixture of fresh media and media from a five-day culture, FIG. 5; for cell growth of Nalm-6: nanomolar to micromolar concentrations, FIG. 1 and 3
Experimental: FIG. 1--Effect of NEP Inhibitors on the Growth of Nalm-6, A2/3, and J558 Cell Lines. The two NEP inhibitors phosphoramidon (1 μM) and carboxyphenylethyl-Phe-β-Ala (20 μM) were added to cells plated in quadruplicate at a density of 100,000 cells/ml in 24 well microtiter plates. The number of viable cells was determined daily. FIG. 3--Correlation of Cell Growth with NEP Activity. Nalm-6 cells were treated with 10 nM phosphoramidon added either as a bolus (circles) or daily (triangles). Cells were initially plated at 200,000 cells/ml. Control cells without added inhibitor are shown as squares. Aliquots were taken daily for determining cell density. To the remainder of the sample was added glutaryl-[…] and NEP activity determined. […] Cells counts were conducted daily. FIG. 5--The Effect of NEP Inhibitors on Nalm-6 Cells Grown in Fresh or Conditioned Media. Nalm-6 cells were grown in fresh media or a 50--50 mixture of fresh media and media taken from a five-day culture. The pH of the conditioned media was adjusted to that of the fresh media. Cell counts were performed daily. The efficacy of endopeptidase inhibitors may be assessed by determining cell numbers and the percent of viable cells (e.g., assessed by trypan blue exclusion) as a function of time in culture in the presence and absence of the endopeptidase inhibitors. In addition the level of neutral endopeptidase activity will be measured and correlated with these parameters. Since the enzyme is on the cell surface its activity can be measured by simply adding substrate to the cell culture. The kinetics of inactivation of purified enzyme can also be assessed. A graphical analysis of the inactivation constant (kobs) versus the inhibitor concentration can be plotted. If the inhibitor binds to the active site of the enzyme this graph should be hyperbolic. The data can then be analyzed in a double reciprocal plot of 1/kobs versus 1/[Inhibitor]. This should yield a straight line from which the dissociation constant for the inhibitor (Ki) and the maximal rate of inactivation k(inact) can be obtained. […] This type of analysis has previously been conducted to characterize the reaction of both phenylglyoxal and N-bromoacetyl-D-Leu-Gly with the enzyme. […] Nalm-6 and Nall-1 are leukemic cell lines generally representative of CALLA+ lymphoblastic leukemias. […] The number of viable cells was determined daily. In FIG. 2, the NEP inhibitors phosphoramidon (PA;10 nM) and carboxyphenylethyl-Phe-β-Ala (10 μM) were added to Nall-1 and, in a separate experiment, to SMS-SB cells plated at a density of 200,000 cells/ml. The inhibitors were added either once on Day 0 as a bolus (closed circle and square) or daily (open circle or triangle). The number of viable cells was determined daily. The inhibition of cell growth by these NEP specific inhibitors appeared somewhat transient and correlated with the recovery of NEP activity. […] Control cells without added inhibitor are shown as squares. Cells were initially plated at a density of 200,000 cells/ml. Aliquots were taken daily for determining cell density. To the remainder of the sample was added glutaryl-[…] and NEP activity was determined.

[4] = test system: SMS-SB cells (CALLA- human leukemic cell line); experiment: Growth of SMS-SB cells (viable cell counts daily); type: cell-based; conditions: 10 μM, bolus or daily addition; FIG. 4
Experimental: FIG. 2--Effect of NEP Inhibitors on the Growth of Nall-1 and SMS-SB Cell Lines. The NEP inhibitors phosphoramidon (10 nM) and carboxyphenylethyl-Phe-β-Ala(10 μM) were added to cells plated at a density of 200,000 cells/ml. The inhibitors were added either once on Day 0 as a bolus (closed circle and square) or daily (open circle or triangle). The number of viable cells was determined daily. […] Cells counts were conducted daily. […] Nalm-6 and Nall-1 are leukemic cell lines generally representative of CALLA+ lymphoblastic leukemias. […] The number of viable cells was determined daily. In FIG. 2, the NEP inhibitors phosphoramidon (PA;10 nM) and carboxyphenylethyl-Phe-β-Ala (10 μM) were added to Nall-1 and, in a separate experiment, to SMS-SB cells plated at a density of 200,000 cells/ml. The inhibitors were added either once on Day 0 as a bolus (closed circle and square) or daily (open circle or triangle). The number of viable cells was determined daily.

[5] = test system: Nall-1 cells (CALLA+ human leukemic cell line); experiment: Growth of Nall-1 cells (viable cell counts daily); type: cell-based; conditions: nanomolar to micromolar concentrations; FIG. 2
Experimental: FIG. 2--Effect of NEP Inhibitors on the Growth of Nall-1 and SMS-SB Cell Lines. The NEP inhibitors phosphoramidon (10 nM) and carboxyphenylethyl-Phe-β-Ala(10 μM) were added to cells plated at a density of 200,000 cells/ml. The inhibitors were added either once on Day 0 as a bolus (closed circle and square) or daily (open circle or triangle). The number of viable cells was determined daily. […] Nalm-6 and Nall-1 are leukemic cell lines generally representative of CALLA+ lymphoblastic leukemias. […] The number of viable cells was determined daily. In FIG. 2, the NEP inhibitors phosphoramidon (PA;10 nM) and carboxyphenylethyl-Phe-β-Ala (10 μM) were added to Nall-1 and, in a separate experiment, to SMS-SB cells plated at a density of 200,000 cells/ml. The inhibitors were added either once on Day 0 as a bolus (closed circle and square) or daily (open circle or triangle). The number of viable cells was determined daily.

[6] = molecular target: T1, NEP (CALLA) on intact Nalm-6 cells (Homo sapiens, UniProt P08473); experiment: NEP activity of intact cells (glutaryl-Ala-Ala-Phe-MNA substrate); type: cell-based
T1 construct: NEP is a normal constituent of Nalm-6 cells; endogenous in cells; host or cells: Nalm-6 (human CALLA+ leukemic cell line)
T1 sequence (P08473 whole entry): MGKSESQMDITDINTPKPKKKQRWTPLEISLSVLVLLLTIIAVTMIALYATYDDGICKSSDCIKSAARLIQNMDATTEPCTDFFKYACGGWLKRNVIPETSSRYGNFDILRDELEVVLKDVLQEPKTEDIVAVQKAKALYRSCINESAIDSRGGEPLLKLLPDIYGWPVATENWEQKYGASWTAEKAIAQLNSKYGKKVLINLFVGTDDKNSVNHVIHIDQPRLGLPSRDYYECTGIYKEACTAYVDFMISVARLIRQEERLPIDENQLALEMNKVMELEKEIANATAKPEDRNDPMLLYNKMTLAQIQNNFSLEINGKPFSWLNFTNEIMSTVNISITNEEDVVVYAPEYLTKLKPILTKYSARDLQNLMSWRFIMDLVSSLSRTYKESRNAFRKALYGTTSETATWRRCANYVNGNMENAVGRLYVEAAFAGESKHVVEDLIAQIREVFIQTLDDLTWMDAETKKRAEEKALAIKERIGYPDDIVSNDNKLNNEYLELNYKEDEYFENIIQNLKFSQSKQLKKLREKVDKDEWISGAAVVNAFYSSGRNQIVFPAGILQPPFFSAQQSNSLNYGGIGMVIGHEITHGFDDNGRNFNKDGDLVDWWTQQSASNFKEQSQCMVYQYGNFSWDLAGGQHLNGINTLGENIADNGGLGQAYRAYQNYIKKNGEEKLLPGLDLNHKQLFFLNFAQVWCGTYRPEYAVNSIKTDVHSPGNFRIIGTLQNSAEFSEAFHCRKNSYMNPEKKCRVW
Experimental: FIG. 3--Correlation of Cell Growth with NEP Activity. Nalm-6 cells were treated with 10 nM phosphoramidon added either as a bolus (circles) or daily (triangles). Cells were initially plated at 200,000 cells/ml. Control cells without added inhibitor are shown as squares. Aliquots were taken daily for determining cell density. To the remainder of the sample was added glutaryl-[…] and NEP activity determined. The efficacy of endopeptidase inhibitors may be assessed by determining cell numbers and the percent of viable cells (e.g., assessed by trypan blue exclusion) as a function of time in culture in the presence and absence of the endopeptidase inhibitors. In addition the level of neutral endopeptidase activity will be measured and correlated with these parameters. Since the enzyme is on the cell surface its activity can be measured by simply adding substrate to the cell culture. The kinetics of inactivation of purified enzyme can also be assessed. A graphical analysis of the inactivation constant (kobs) versus the inhibitor concentration can be plotted. […] The data can then be analyzed in a double reciprocal plot of 1/kobs versus 1/[Inhibitor]. […] To the remainder of the sample was added glutaryl-[…] and NEP activity was determined. […] The NEP activity of intact cells in the presence of the inhibitors has been measured during the course of experiments similar to those shown in FIG. 1. […]

L3 myoblast cell line = experiment: L3 myoblast cell line, formation of myotubules; type: cell-based

irreversible inhibition / affinity labelling of NEP [1]: irreversible inhibitor
mol incorporated per mol of enzyme ([1]; irreversible inhibition): 1 mol per mol of enzyme
Ki [2]: 5 mM
SMILES: CC(C)C[C@@H](NC(=O)CBr)C(=O)NCC(=O)O [BADLG, N-bromoacetyl-D-Leu-Gly] (BrAc-[dL]-Gly-OH)

SMILES: C[C@H](NC(=O)[C@@H](Cc1ccccc1)NC(=O)CBr)C(=O)O [bromoacetyl-D-Phe-Ala]
irreversible inhibition / affinity labelling of NEP [1]: not an affinity label of NEP

SMILES: C[C@H](CS)C(=O)N1CCC[C@H]1C(=O)O [captopril, HS--CH2 --CH(CH3)--CO--Pro]
growth of Nalm-6 cells ([3]; 10 μM): without effect
growth of CALLA- SMS leukemic cell line [4]: neither thiorphan nor captopril affect the growth

SMILES: O=C(O)CCNC(=O)[C@H](Cc1ccccc1)NC(Cc1ccccc1)C(=O)O (stereo partly drawn) [carboxyphenylethyl-Phe-β-Ala]
growth of Nalm-6 cells in conditioned media [3]: the cells grow
cell growth of Nalm-6 [3]: cell growth was inhibited; also recorded: inhibit cell growth
cell growth of Nall-1 [5]: cell growth was inhibited; also recorded: inhibit cell growth
enzyme (NEP) activity in conditioned vs fresh media [6]: just as effectively inhibited in the conditioned media as in the fresh media

SMILES: CC(C)C[C@H](NP(=O)(O)O[C@@H]1O[C@@H](C)[C@H](O)[C@@H](O)[C@H]1O)C(=O)N[C@@H](Cc1c[nH]c2ccccc12)C(=O)O [phosphoramidon]
duration of inhibition of cell growth at higher inhibitor concentration ([3]; 10 μM): growth is inhibited during the entire course of the experiment
growth of Nalm-6 cells in conditioned media [3]: the cells grow
growth of Nalm-6 cells in dialyzed conditioned media ([3]; conditioned media dialyzed against fresh media, cut-off 14,000): cell growth was once again inhibited
cell growth of Nalm-6 [3]: cell growth was inhibited; also recorded: inhibit cell growth
cell growth of Nall-1 [5]: cell growth was inhibited; also recorded: inhibit cell growth
enzyme (NEP) activity in conditioned vs fresh media [6]: just as effectively inhibited in the conditioned media as in the fresh media
effect on L3 myoblast cell line (formation of myotubules) (L3 myoblast cell line): unaffected

SMILES: O=C(O)CNC(=O)C(CS)Cc1ccccc1 (stereo not shown) [thiorphan, HS--CH2 --CH(CH2 --.phi.)--CO--Gly]
growth of Nalm-6 cells ([3]; 10 μM): inhibits the growth
growth of CALLA- SMS leukemic cell line [4]: neither thiorphan nor captopril affect the growth
